Reference: patent US12649734B2, “Bioavailable protein disulfide isomerase inhibitors” (THE CLEVELAND CLINIC FOUNDATION, priority 2020, dated 2026)

Key:
[1] = test system: MM1.S cells; assay: Cell viability assay (CellTiter-Glo), MM1.S; type: cell-based, human; conditions: MM cells, in vitro cell culture
Experimental: Cell vi-ability and LD50 for inhibitors were measured in 96 well culture plates (2×10^4 cells/well) after 72 h of treatment using CellTiter-Glo® Luminescent Cell Viability Assay (Promega, Madison, WI, USA). (A) Cell survival assay with MM1.S.luc and BTZ-resistant MM1.S.luc cells. […] (C) Comparison of PDIA1 protein levels in MM1.S.luc and MM1.S.luc BTZ-resistant cells. Band intensity was calculated with Image Lab Version 5.2.1. (D) Cell survival assay with 5TGM1.luc and (E) BTZ-resistant 5TGM1.luc cells. (F) MM1.S cell line was exposed to CCF642-34, and BTZ for 72 h for synergistic drug combination test according to Chou and Talalay method. If the […] remained less than 1, the two drugs were determined as synergistic. […] The number of colony-forming units were plotted for each treatment.
Cell viability assay: Cell viability was measured in 96 well culture plates (2×10^4 cells/well) using CellTiter-Glo® Luminescent Cell Viability Assay (Promega, Madison, WI, USA) according to the manufacturer's protocol.

[2] = test system: MM1.S cells; assay: ER stress response and apoptosis markers by immunoblotting; type: cell-based, human; conditions: 3 μM, 4 h
Experimental: FIGS. 6A-6C provide graphs and images showing PDIA1 inhibition by CCF642 analogues induce acute endoplasmic reticulum (ER) stress response and lead to apoptosis. Multiple myeloma cells (MM1.S) were treated with 3 μM of CCF642, -34, -37, -39, -34-A, and Tunicamycin (as a control). The status of ER sensors (XBP-1S, IRE1α oligomerization, and induction of C/EBP homology protein (CHOP)) along with apoptosis markers (cleaved caspase 3 and PARP1) were monitored. (A) MM1.S cells were treated for 4 h with CCF642 and its indicated analogues. (B) MM1.S cells were treated with CCF642-34 in a time course. (C) MM1.S, MM1.S.luc, and BTZ-resistant MM1.S.luc cells were stained with the H2DCFDA ROS detection and then treated with 2.5 μM CCF642-34 up to 4 h.
Immunoblotting: Immunoblotting was performed as described previously (Dallas et al., Blood, 93, 1697-1706 (1999)) using primary antibodies against PDIA1 (Cat #3501), XBP1-S (Cat #12782); IRE1α (Cat #3294), C/EBP homologous protein (CHOP) (Cat #5554), Caspase-3 (Cat #9665), PARP1 (Cat #9542), and GAPDH (Cat #3683) purchased from Cell Signaling Technology, Inc. (Danvers, MA, USA) and used at 1:1000 dilution, unless mentioned otherwise.

[3] = target: PDIA1 (Homo sapiens, UniProt P07237); assay: Target validation in cells with biotinylated analogues (streptavidin blot, pull down, LCMS); type: cell-based; conditions: streptavidin blot and pull down of treated MM1.S cells
Experimental: FIGS. 4A-4G provide graphs and images showing that model-based design improves potency and selectivity of protein disulfide isomerase A1 (PDIA1) inhibitors. (A) Ribbon diagram of CCF642-34 docked onto PDIA1. (B) Two-dimensional structure of modified CCF642 pharmacophore, where R represents amino acids tryptophan, tyrosine, phenylalanine, histidine, proline, or alanine. (C) PDIA1/PH4B activity assay was performed in the absence or presence of CCF642 or (D) CCF642-34. In time-dependent inhibition of di-E-GSSG, reduction was monitored for 1 h by the increase in fluorescence, and the relative fluorescence unit was plotted as a function of time. (E-F) The observed rate constant for inhibition, kobs, at each concentration determined from the slope of kinetic data presented in panel C and D. The kobs values are re-plotted against inhibitor concentration and fitted to a hyperbolic equation, kobs=k2[I]/(Ki+[I]), to obtain values for Ki and k2 in GraphPad Prism v8.0.2. The concentration of drug is indicated on each curve, for (E) 642 and (F) CCF642-34. (G) Target validation. […]
Mass spectrometry: Tryptic peptide mixtures were analyzed by online LC-coupled tandem mass spectrometry (LCMS/MS) on an Orbitrap mass spectrometer (Thermo Fisher) as described previously. […] A peak list was created for each analyzed fraction (i.e., gel slice) and individual Sequest searches were performed for each fraction. […]

Chain of PDIA1 (P07237 18-508): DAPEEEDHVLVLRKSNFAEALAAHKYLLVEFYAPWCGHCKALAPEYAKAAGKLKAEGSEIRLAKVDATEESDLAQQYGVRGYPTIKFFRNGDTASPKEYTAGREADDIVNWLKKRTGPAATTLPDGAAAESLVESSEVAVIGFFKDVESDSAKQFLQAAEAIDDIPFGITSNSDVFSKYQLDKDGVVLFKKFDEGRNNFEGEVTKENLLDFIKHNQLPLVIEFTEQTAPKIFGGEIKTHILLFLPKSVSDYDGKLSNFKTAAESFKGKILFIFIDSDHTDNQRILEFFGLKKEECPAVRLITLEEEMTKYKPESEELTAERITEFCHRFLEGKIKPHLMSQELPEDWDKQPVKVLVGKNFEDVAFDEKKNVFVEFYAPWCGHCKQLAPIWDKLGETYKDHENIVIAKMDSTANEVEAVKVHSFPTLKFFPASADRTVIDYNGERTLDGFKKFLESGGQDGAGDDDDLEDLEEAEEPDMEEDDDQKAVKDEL

In the case of NC(CC1CNc2ccccc21)C(=O)NCCCOc1ccc(N2C(=O)/C(=C/c3ccc([N+](=O)[O-])s3)SC2=S)cc1 (stereo not drawn) [CCF642-34], the “higher potency compared to CCF642” value [1] is reported as ~2 fold, the “ER stress response (induction of XBP-1S and CHOP)” value [2] is reported as “induced a robust ER stress response” and the “binding selectivity in MM1.S cells” value [3] is reported as “remarkable selectivity for PDIA1”.
